Columns and labels:
[1] = target: T1, human NPFFR1 (hNPFFR1) receptor (Homo sapiens, UniProt Q9GZQ6); experiment: Human NPFFR1 evaluation using BRET biosensors (antagonist IC50); type: cell-based; conditions: hNPFFR1 transiently over-expressed in HEK-293 T cells; BRET signal; stimulation by EC80 RFRP-3
T1 construct: expressed in transfected cells; host or cells: HEK-293 T cells, transient co-transfection with polyethylenimine
Method in brief: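 HEK-293T cells co-transfected with receptor, GαoB and Gi-effector BRET biosensor pair, assayed 48 h later. Compound 10 min, then EC80 RFRP-3 with 10 min luminescence read; IC50 from 20-concentration variable-slope fit, duplicate, two independent experiments.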

T1 sequence (Q9GZQ6 whole entry): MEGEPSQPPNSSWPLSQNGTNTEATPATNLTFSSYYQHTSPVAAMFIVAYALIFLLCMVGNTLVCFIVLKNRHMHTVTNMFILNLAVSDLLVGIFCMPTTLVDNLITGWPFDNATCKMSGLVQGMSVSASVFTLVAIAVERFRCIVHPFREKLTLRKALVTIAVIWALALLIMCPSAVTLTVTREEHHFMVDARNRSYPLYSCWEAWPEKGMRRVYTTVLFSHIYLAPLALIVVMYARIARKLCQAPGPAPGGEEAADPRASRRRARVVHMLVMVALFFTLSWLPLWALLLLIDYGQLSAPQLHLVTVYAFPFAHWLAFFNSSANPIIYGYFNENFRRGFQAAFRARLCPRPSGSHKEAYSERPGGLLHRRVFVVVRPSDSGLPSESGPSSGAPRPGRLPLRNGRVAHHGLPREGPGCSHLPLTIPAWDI

SMILES	IC50 [1] [nM]	melting point [°C]
CCc1nc(N)ccc1-c1cccc2c1NCCC2.Cl [Example 106, 6-ethyl-5-(1,2,3,4-tetrahydroquinolin-8-yl)pyridin-2-amine]	100 to 1000	147 to 160
Cl.Nc1ccc(-c2cccc3c2OCC3)c(N)n1 [Example 28, 3-(2,3-Dihydrobenzofuran-7-yl)pyridine-2,6-diamine]	100 to 1000	> 250
Cc1nc(N)ccc1-c1cccc2cccnc12.Cl [Example 3, 6-Methyl-5-quinolin-8-yl-pyridin-2-ylamine]	100 to 1000	> 250
CCc1nc(N)ccc1-c1cccc2ccc(N)nc12.Cl.Cl [Example 92, 8-(6-amino-2-ethylpyridin-3-yl)quinolin-2-amine]	100 to 1000	200 to 250
Cl.Nc1ccc(-c2cccc3c2OCCO3)c(N)n1 [Example 38, 3-(2,3-Dihydro-benzo[1,4]dioxin-5-yl)-pyridine-2,6-diamine]	100 to 1000	99 to 110
CCc1nc(N)ccc1-c1c(F)ccc2cc(-c3ccccc3)cnc12.Cl [Example 107, 6-ethyl-5-(7-fluoro-3-phenylquinolin-8-yl)pyridin-2-amine]	100 to 1000	> 250
CCc1nc(N)ccc1-c1c(C(N)=O)ccc2cccnc12.Cl [Example 152, 8-(6-amino-2-ethylpyridin-3-yl)quinoline-7-carboxamide]	> 1000	150 to 164
Cl.Nc1ccc(-c2cccc3ccncc23)c(C2CC2)n1 [Example 15, 6-Cyclopropyl-5-(8-isoquinolyl)pyridin-2-amine]	100 to 1000	200 to 215
CC(C)c1nc(N)ccc1-c1cccc2ccncc12.Cl [Example 12, 6-Isopropyl-5-(8-isoquinolyl)pyridin-2-amine]	100 to 1000	> 250
CCc1nc(N)ccc1-c1cccc2c1NC(=O)C2.Cl [Example 163, 7-(6-amino-2-ethylpyridin-3-yl)indolin-2-one]	100 to 1000	> 250
CCc1nc(N)ccc1-c1ccccc1-c1ccc(O)nc1.Cl [Example 88, 5-(2-(6-amino-2-ethylpyridin-3-yl)phenyl)pyridin-2-ol]	100 to 1000	95 to 120
CCc1nc(N)ccc1-c1ccccc1-c1ccc(C(F)(F)F)nc1.Cl [Example 81, 6-ethyl-5-(2-(6-(trifluoromethyl)pyridin-3-yl)phenyl)pyridin-2-amine]	100 to 1000	> 250
Cl.Nc1ccc(-c2ccc(C(F)(F)F)c3cccnc23)c(N)n1 [Example 54, 3-(5-(trifluoromethyl)quinolin-8-yl)pyridine-2,6-diamine]	> 1000	> 250
CCc1nc(N)ccc1-c1ccccc1-c1ccc(F)nc1.Cl [Example 87, 6-ethyl-5-(2-(6-fluoropyridin-3-yl)phenyl)pyridin-2-amine]	100 to 1000	> 250
CCc1nc(N)ccc1-c1ccc(C(F)(F)F)c2cccnc12.Cl [Example 75, 6-ethyl-5-(5-(trifluoromethyl)quinolin-8-yl)pyridin-2-amine]	> 1000	120 to 137
Nc1ccc(-c2cccc3ncccc23)c(N)n1 [Example 34, 3-Quinolin-5-yl-pyridine-2,6-diamine]	100 to 1000	> 250
Cl.Nc1ccc(-c2cccc3c2oc2ccccc23)c(N)n1 [Example 40, 3-Dibenzofuran-4-ylpyridine-2,6-diamine]	< 100	135 to 143
CCc1nc(N)ccc1-c1cccc2ccc(-c3ccccn3)nc12.Cl [Example 119, 6-ethyl-5-(2-(pyridin-2-yl)quinolin-8-yl)pyridin-2-amine]	< 100	111 to 116
Nc1ccc(-c2cnn3ccccc23)c(N)n1 [Example 19, 3-Pyrazolo[1,5-a]pyridin-3-ylpyridine-2,6-diamine]	> 1000	195 to 200
CC(C)c1nc(N)ccc1-c1csc2ccccc12.Cl [Example 10, 5-Benzo[b]thiophen-3-yl-6-isopropyl-pyridin-2-ylamine]	100 to 1000	> 250

The next lines start with the values.

IC50 [1] [nM]	melting point [°C]	SMILES
< 100	100 to 140	CC(C)Cc1nc(N)ccc1-c1cccc2cccnc12.Cl [Example 67, 6-isobutyl-5-(quinolin-8-yl)pyridin-2-amine]
< 100	100 to 146	CCc1nc(N)ccc1-c1c(F)ccc2ccc(N3CCOCC3)nc12.Cl [Example 135, 6-ethyl-5-(7-fluoro-2-morpholinoquinolin-8-yl)pyridin-2-amine]
< 100	170 to 207	Cl.Nc1ccc(-c2c(F)ccc3cccnc23)c(CC2CC2)n1 [Example 72, 6-(cyclopropylmethyl)-5-(7-fluoroquinolin-8-yl)pyridin-2-amine]
< 100	> 250	Cl.Nc1ccc(-c2c(F)c(F)cc3ccc(O)nc23)c(N)n1 [Example 64, 8-(2,6-diaminopyridin-3-yl)-6,7-difluoroquinolin-2-ol]
< 100	121 to 125	CCc1nc(N)ccc1-c1cccc2ccc(C(=O)N(CC)C(C)C)nc12.Cl [Example 170, 8-(6-amino-2-ethylpyridin-3-yl)-N-ethyl-N-isopropylquinoline-2-carboxamide]
< 100	77 to 88	Cl.Nc1ccc(-c2cccc3ccncc23)c(N)n1 [Example 32, 3-Isoquinolin-8-yl-pyridine-2,6-diamine]
< 100	140 to 172	CCc1nc(N)ccc1-c1c(F)ccc2ccc(N3CC4CCC(C3)O4)nc12.Cl [Example 136, 5-(2-(8-oxa-3-azabicyclo[3.2.1]octan-3-yl)-7-fluoroquinolin-8-yl)-6-ethylpyridin-2-amine]
< 100	90 to 130	CCc1nc(N)ccc1-c1cccc2ccc(C(F)(F)F)nc12.Cl [Example 99, 6-ethyl-5-(2-(trifluoromethyl)quinolin-8-yl)pyridin-2-amine]
< 100	230 to 250	CCc1nc(N)ccc1-c1c(OC)ccc2cccnc12.Cl [Example 98, 6-ethyl-5-(7-methoxyquinolin-8-yl)pyridin-2-amine]
< 100	50 to 90	CCc1nc(N)ccc1-c1cccc2ccc(N3CCCOCC3)nc12.Cl [Example 133, 5-(2-(1,4-oxazepan-4-yl)quinolin-8-yl)-6-ethylpyridin-2-amine]
< 100	43 to 52	CCc1nc(N)ccc1-c1c(F)ccc2c1OCC=CC2.Cl [Example 178, 6-ethyl-5-(8-fluoro-2,5-dihydrobenzo[b]oxepin-9-yl)pyridin-2-amine]
< 100	150 to 180	CCc1nc(N)ccc1-c1c(C(F)(F)F)ccc2cccnc12.Cl [Example 109, 6-ethyl-5-(7-(trifluoromethyl)quinolin-8-yl)pyridin-2-amine]
< 100	180 to 192	CCc1nc(N)ccc1-c1cccc2c1OCCC2.Cl [Example 66, 5-(chroman-8-yl)-6-ethylpyridin-2-amine]

From patent publication US20220298135A1, “5-HETEROARYL-PYRIDIN-2-AMINE COMPOUNDS AS NEUROPEPTIDE FF RECEPTOR ANTAGONISTS” (Domain Therapeutics, priority 2019, published 2022)
